Measured values as given in article PMC10258794, “To Fold or Not to Fold: Diastereomeric Optimization of an α-Helical Antimicrobial Peptide” (Journal of Medicinal Chemistry, 2023).
Values after ≈ are worked out from the molar mass of the structure shown. Read-outs that look alike come from different tables or passages of the source. Non-standard residues stand in square brackets, D forms with d. Residues, ends and D or L forms follow the SMILES beside them.

Key:
[1] = EYPC vesicle leakage assay; type: biochemical; settings: 10 μg/mL of compound; 10 mM TRIS, 107 mM NaCl, pH 7.4
Description: 5(6)-carboxyfluorescein (CF) was purchased from Sigma. EYPC, EYPG, and a Mini-Extruder were purchased from Avanti Polar Lipids. Egg PC or Egg PG thin lipid layers were prepared by evaporating a solution of 100 mg of EYPC or EYPG in 4 mL of MeOH/CHCl3 (1:1) on a rotary evaporator at room temperature and then dried in vacuo overnight. […] Extravesicular components were removed by gel filtration (Sephadex G-50) with 10 mM TRIS, 107 mM NaCl, pH 7.4 buffer. Final conditions: ∼2.5 mM PC or PG; inside: 50 mM CF, 10 mM TRIS, 10 mM NaCl, pH 7.4 buffer; outside: 10 mM TRIS, 107 mM NaCl, pH 7.4. […] The CF efflux was monitored at λem 517 nm (λex 492 nm) as a function of time after addition of the desired volume of peptide from 2 mg/mL stock in mQ water at t = 45 s, 10 and 50 μg/mL were monitored for both EYPC and EYPG. […] Fluorescence intensities were then normalized to the maximal emission intensity using I(t) = (It – I0)/(I∞ – I0) where I0 = It at peptide addition, I∞ = It at saturation of lysis.

[2] = tested on: A. baumannii ATCC19606
Description: (§1) Antimicrobial activity was determined for all peptides on E. coli W3110, P. aeruginosa PAO1, A. baumannii ATCC19606, K. pneumoniae NCTC418, and methicillin-resistant S. aureus COL and for selected peptides on P. aeruginosa PA14 and the polymyxin B-resistant derivatives PA14 4.13, PA14 4.18, and PA14 2P4 as well as the clinical isolates ZEM-1A and ZEM9A, K. pneumoniae OXA-48, Enterobacter cloacae, Stenotrophomonas maltophilia, B. cenocepacia, and Staphylococus epidermis. To determine the MIC, the broth microdilution method was used.[75] A single bacterial colony was grown in LB medium overnight at 37 °C and 180 rpm shaking. The compounds were prepared as stock solutions of 2 mg/mL in sterilized milliQ deionized water, added to the first well of 96-well sterile, polypropylene round-bottom microtiter plates (TPP, untreated, Corning Incorporated, Kennebunk, USA), and diluted serially by 1/2. […] The bacterial inoculum was prepared by measuring the absorbance of the overnight culture, which was diluted to concentration of the bacteria was quantified by measuring absorbance at 600 nm and diluted to an OD600 of 0.022 in MH medium pH 7.4 (Sigma-Aldrich, Buchs, Switzerland). The sample solutions (150 μL) were mixed with 4 μL of diluted bacterial suspension with a final inoculation of about 5 × 10^5 CFU. For each test, two columns of the plate were kept for sterility control (MH medium only) and growth control (MH medium with bacterial inoculum, no compound). […] The plates were incubated at 37 °C for 16–20 h under static conditions. 15 μL of 3-(4,5-dimethylthiazol-2-yl)-2,5-diphenyltetrazolium bromide (MTT)[76] (1 mg/mL in sterilized milliQ deionized water) was added to each well, and the plates were incubated at room temperature until MTT staining was completed. The MIC was defined as the lowest concentration of the dendrimer that inhibits the visible growth of the tested bacteria (yellow) with the unaided eye.

[3] = tested on: P. aeruginosa PAO1
Description: as §1

[4] = tested on: E. coli W3110
Description: as §1

[5] = tested on: S. aureus COL MRSA
Description: as §1

[6] = tested on: K. pneumoniae NCTC418
Description: as §1

[7] = tested on: human red blood cells; assay: Hemolysis assay (MHC)
Description: To determine the MHC stock solutions, 8 mg/mL peptide in PBS (pH 7.4) was prepared, and 50 μL was diluted serially by l/2 in 50 μL of PBS (pH 7.4) in a 96-well plate (Costar or Nunc, polystyrene, untreated). […] Plasma was discarded, and the pellet was re-suspended in a 15 mL Falcon tube in 5 mL of PBS. The washing was repeated three times, and the remaining pellet was re-suspended in 10 mL of PBS. The hRBC suspension (50 μL) was added to each well, and the plate was incubated at room temperature for 4 h. MHC end points were determined by visual determination of the wells after the incubation period. Controls on each plate included a blank medium control (50 μL PBS + 50 μL of hRBCs suspension) and a hemolytic activity control (mQ-deionized water 50 μL + 50 μL hRBC suspension).

[8] = tested on: P. aeruginosa ZEM-1A; assay: microbe, parasite or virus in culture; settings: ZEM-1A, pH 7.4
Description: as §1

[9] = tested on: Enterobacter cloacae; assay: microbe, parasite or virus in culture
Description: as §1

[10] = MH broth pH 7.4, 16–20 h, 37 °C
[11] = supplementary CSV, ranges of Table 1 given as one number

| Compound | MIC A. baumannii ATCC19606 [2, 10] | MIC A. baumannii ATCC19606 [2, 11] | MIC P. aeruginosa PAO1 [3, 10] | MIC P. aeruginosa PAO1 [3, 11] | MIC E. coli W3110 [4, 10] | MIC S. aureus COL MRSA [5, 10] | MIC K. pneumoniae NCTC418 [6, 10] | also measured |
| --- | --- | --- | --- | --- | --- | --- | --- | --- |
| CC(C)C[C@H](NC(=O)[C@H](CC(C)C)NC(=O)[C@@H](CC(C)C)NC(=O)[C@H](CCCCN)NC(=O)[C@@H](CC(C)C)NC(=O)[C@H](CC(C)C)NC(=O)[C@@H](CCCCN)NC(=O)[C@H](CC(C)C)NC(=O)[C@@H](CC(C)C)NC(=O)[C@H](CCCCN)NC(=O)[C@@H](N)CCCCN)C(N)=O [HP15, KKlLkLlKlLL] | 32 to 64 µg/mL | 48 µg/mL (≈ 36.3 µM) | 16 µg/mL (≈ 12.1 µM) | 16 µg/mL (≈ 12.1 µM) | 8 µg/mL (≈ 6.05 µM) | >64 µg/mL | >64 µg/mL | EYPC vesicle leakage (%) [1]: 3% |
| CC(C)C[C@H](NC(=O)[C@@H](CC(C)C)NC(=O)[C@H](CCCCN)NC(=O)[C@@H](CC(C)C)NC(=O)[C@H](CC(C)C)NC(=O)[C@@H](CCCCN)NC(=O)[C@H](CC(C)C)NC(=O)[C@@H](CC(C)C)NC(=O)[C@H](CCCCN)NC(=O)[C@H](N)CCCCN)C(=O)N[C@H](CC(C)C)C(N)=O [HP31, kKlLkLlKlLl] | 32 µg/mL (≈ 24.2 µM) | 32 µg/mL (≈ 24.2 µM) | 8 µg/mL (≈ 6.05 µM) | 8 µg/mL (≈ 6.05 µM) | 8 µg/mL (≈ 6.05 µM) | 32 µg/mL (≈ 24.2 µM) | >64 µg/mL | MIC S. aureus COL [5, 11]: 32 µg/mL (≈ 24.2 µM) |
| CC(C)C[C@H](NC(=O)[C@H](CCCCN)NC(=O)[C@H](CC(C)C)NC(=O)[C@H](CC(C)C)NC(=O)[C@@H](CCCCN)NC(=O)[C@H](N)CCCCN)C(=O)N[C@@H](CC(C)C)C(=O)N[C@@H](CCCCN)C(=O)N[C@@H](CC(C)C)C(=O)N[C@H](CC(C)C)C(=O)N[C@H](CC(C)C)C(N)=O [HP18, kkLLKLLKLll] | 8 µg/mL (≈ 6.05 µM) | 8 µg/mL (≈ 6.05 µM) | 8 µg/mL (≈ 6.05 µM) | 8 µg/mL (≈ 6.05 µM) | 4 to 8 µg/mL | 16 to 32 µg/mL | >64 µg/mL | MIC E. coli W3110 [4, 11]: 6 µg/mL (≈ 4.54 µM) |
| CC[C@H](C)[C@H](NC(=O)[C@@H](NC(=O)[C@@H](NC(=O)[C@@H](CCCNC(=N)N)NC(=O)[C@@H](NC(=O)[C@@H](NC(=O)[C@@H](CCCNC(=N)N)NC(=O)[C@@H](NC(=O)[C@@H](NC(=O)[C@@H](CCCNC(=N)N)NC(=O)[C@H](N)CCCNC(=N)N)[C@@H](C)CC)[C@@H](C)CC)[C@@H](C)CC)[C@@H](C)CC)[C@@H](C)CC)[C@@H](C)CC)C(N)=O [HP37, rrIIrIIrIII] (H-[dR][dR]II[dR]II[dR]III-NH2) |  |  |  |  |  |  |  | MHC [7]: 250 µg/mL; MHC ([7]; pH 7.4): 250 µg/mL; MIC A. baumannii ATCC19606 ([2]; ATCC19606): 12 µg/mL (≈ 8.37 µM); MIC A. baumannii ATCC19606 ([2]; ATCC19606, pH 7.4): 8 to 16 µg/mL; MIC P. aeruginosa PAO1 ([3]; PAO1): 6 µg/mL (≈ 4.18 µM); MIC P. aeruginosa PAO1 ([3]; PAO1, pH 7.4): 4 to 8 µg/mL; MIC S. aureus COL ([5]; COL): 12 µg/mL (≈ 8.37 µM); MIC S. aureus COL MRSA ([5]; COL, pH 7.4): 8 to 16 µg/mL; MIC K. pneumoniae NCTC418 ([6]; NCTC418): 48 µg/mL (≈ 33.5 µM); MIC K. pneumoniae NCTC418 ([6]; NCTC418, pH 7.4): 32 to 64 µg/mL |
| CC(C)C[C@H](NC(=O)[C@H](CC(C)C)NC(=O)[C@H](CCCCN)NC(=O)[C@H](CC(C)C)NC(=O)[C@H](CC(C)C)NC(=O)[C@@H](CCCCN)NC(=O)[C@H](N)CCCCN)C(=O)N[C@@H](CCCCN)C(=O)N[C@@H](CC(C)C)C(=O)N[C@@H](CC(C)C)C(=O)N[C@H](CC(C)C)C(N)=O [HP7] |  |  |  |  |  |  |  | MIC ZEM-1A [8]: 1 µg/mL (≈ 0.757 µM); MIC E. cloacae [9]: 2 µg/mL (≈ 1.51 µM) |
| CC(C)C[C@H](NC(=O)[C@H](CC(C)C)NC(=O)[C@@H](CC(C)C)NC(=O)[C@@H](CCCCN)NC(=O)[C@H](CC(C)C)NC(=O)[C@H](CC(C)C)NC(=O)[C@H](CCCCN)NC(=O)[C@@H](CC(C)C)NC(=O)[C@@H](CC(C)C)NC(=O)[C@H](CCCCN)NC(=O)[C@@H](N)CCCCN)C(N)=O [HP20, KKllKLLklLL] | 32 to 64 µg/mL | 48 µg/mL (≈ 36.3 µM) | 16 µg/mL (≈ 12.1 µM) | 16 µg/mL (≈ 12.1 µM) | 8 µg/mL (≈ 6.05 µM) | >64 µg/mL | >64 µg/mL |  |
